Results taken from patent publication US7285221B2, “Composition for preventing of slime and method for preventing slime” (Kurita Water Industries, Ltd., priority 2002, dated 2007).

Tests used:
[1] = test system: microorganisms in the circulating water; test: Number of microorganisms in the circulating water
Experimental: (§1) From a water tank 1 holding 15 liters of water, test water was passed at a rate of 10 liters/minute through a column 3 and returned to the water tank 1 using a circulating pump 2. In the column 3, a test board made of a synthetic rubber and having a surface area of 40 cm^2 was disposed to a supporting pole to measure the amount of attachment of slime.
(§2) In a water tank 4, test liquid for supplement prepared in advance was stored and transferred into the water tank 1 at a rate of 5 ml/minute using a pump for an agent 5. The test liquid for supplement was prepared by adding calcium chloride and sodium hydrogencarbonate to city water, which was dechlorinated by passing through a column of active carbon, in amounts such that the calcium hardness was 150 mg CaCO3/liter and the acid consumption (pH 4.8) was 150 mg CaCO3/liter. As the nutrient for microorganisms, 100 mg/liter of citric acid was added. To the obtained solution, a test agent was added and pH was adjusted at 8.5 by adding sodium hydroxide.
(§3) When the test was started, dirt was added into the water in the water tank 1 in an amount such that the turbidity of the water was 50. As the dirt, a concentrated liquid of reverse washing discharged from filters for industrial water in Chiba area was used. The dirt was added into the water tank 1 in an amount corresponding to a turbidity of 25 at each time when 48 hours and 96 hours had passed after the start of the test.
(§4) The number of microorganisms in the circulating water and the turbidity of the circulating water were measured 48 hours, 72 hours and 120 hours after the start of the test. The test board of synthetic rubber attached to the column 3 was taken out 120 hours after the start of the test. After slime attached to the test board was cleaved and dried to the constant weight at 105° C., the weight of the slime was measured and the amount of the attached slime was obtained.
(§5) As part A of the test agent, a mixed liquid composed of 40% by weight of an aqueous solution of sodium hypochlorite having a concentration of effective chlorine of 12% by weight, 8% by weight of a sulfamic acid, 10% by weight of sodium hydroxide and 42% by weight of water was used. This mixed liquid is a solution conventionally used as the agent for preventing formation of slime. As part B of the agent, an anionic polymer or a phosphonic acid was used.

slime = test: Attachment of slime on a synthetic rubber test board in circulating test water apparatus; conditions: 120 hours after start of test; agent concentrations as in each example
Experimental: as §1, §2, §3, §4, §5

sludge = test: Accumulation of sludge at the bottom of the water tank of the circulating test water apparatus; conditions: 120 hours after start of test; agent concentrations as in each example
Experimental: as §1, §2, §3
A valve 6 at a lower portion of the water tank 1 was opened and the water in the water tank 1 was removed 120 hours after the start of the test. The valve 6 was then closed again. Into the water tank 1, 200 ml of pure water was added and dirt accumulated at the lower portion of the water tank was suspended using a brush. The valve was opened and the formed suspension was taken out. After the dirt was separated using a centrifuge and dried to the constant weight at 105° C., the weight of the dirt was measured and the amount of accumulated sludge was obtained.
as §5

[2] = Storage stability of effective chlorine in the composition at 40° C. shielded from light; assay type: physicochemical; conditions: for concentration of effective chlorine remained: pH 14; for Fraction of remaining effective chlorine: pH of composition 14, 40° C.
Experimental: A composition composed of 40% by weight of an aqueous solution of sodium hypochlorite having a concentration of effective chlorine of 12% by weight, 8% by weight of sulfamic acid, 10% by weight of an anionic polymer or a phosphonic acid and the remaining amount of sodium hydroxide and water was prepared. pH of the composition was adjusted by changing the amount of sodium hydroxide. The prepared composition was stored in a vessel kept at the constant temperature of 40° C. and shielded from light. The concentration of the effective chlorine was measured after the composition was stored for a prescribed time.
For the measurement of the concentration of the effective chlorine, a residual chlorine meter manufactured by HACH Company and a reagent specific for this measurement were used. BELCREN (the weight-average molecular weight: 2730) manufactured by GREAT LAKES CHEMICAL Company was used as the polymaleic acid. ISOBAN (the weight-average molecular weight: 10,800) manufactured by KURARAY Co., Ltd. was used as the maleic acid-isobutylene copolymer. AQUARICK GL (the weight-average molecular weight: 10,700) manufactured by NIPPON SHOKUBAI Co., Ltd. was used as the acrylic acid-hydroxyallyloxypropanesulfonic acid copolymer. DEQUEST 2010 manufactured by MONSANTO Company was used as 1-hydroxyethylidene-1,1-diphosphonic acid. BAYHIBIT AM manufactured by BAYER Company was used as 2-phosphonobutane-1,2,4-tricarboxylic acid. BELCORE 575 manufactured by GREAT LAKES Company was used as hydroxyphosphonoacetic acid.

| concentration of effective chlorine remained ([2]; after 3 month) | concentration of effective chlorine remained ([2]; after one month) | Fraction of remaining effective chlorine ([2]; after 7 days) | Fraction of remaining effective chlorine ([2]; after 30 days) | Fraction of remaining effective chlorine ([2]; after 90 days) | SMILES | Number of microorganisms in circulating water ([1]; after 48 hours) | Number of microorganisms in circulating water ([1]; after 72 hours) | Number of microorganisms in circulating water ([1]; after 120 hours) | Attachment of slime amount (slime) | Accumulation of sludge amount (sludge) | number of microorganisms in the circulating water, in words ([1]; comparison in words, no time point) |
| --- | --- | --- | --- | --- | --- | --- | --- | --- | --- | --- | --- |
|  |  |  |  |  | O=C(O)C(O)P(=O)(O)O (stereo not shown) [Comparative Example 13, hydroxy-phosphonoacetic acid] | 660000 mL⁻¹ | 350000 mL⁻¹ | 490000 mL⁻¹ | 16.5 mg/dm^2 | 51.1 mg |  |
|  |  |  |  |  | CC(O)(P(=O)(O)O)P(=O)(O)O [Comparative Example 9, 1-hydroxyethylidene-1,1-diphosphonic acid] | 1.3e+06 mL⁻¹ | 490000 mL⁻¹ | 680000 mL⁻¹ | 16.1 mg/dm^2 | 39.6 mg |  |
| about 20% | about 60% | 91% | 59% | 18% | OCl [sodium hypochlorite] |  |  |  |  |  |  |
|  |  |  |  |  | CC(O)(P(=O)(O)O)P(=O)(O)O [Comparative Example 8, 1-hydroxyethylidene-1,1-diphosphonic acid] | 720000 mL⁻¹ | 550000 mL⁻¹ | 490000 mL⁻¹ | 17.3 mg/dm^2 | 42.8 mg | not substantially different |
|  |  |  |  |  | O=C(O)CCC(CC(=O)O)(C(=O)O)P(=O)(O)O (stereo not shown) [Comparative Example 11, 2-phosphonobutane-1,2,4-tricarboxylic acid] | 3.8e+06 mL⁻¹ | 890000 mL⁻¹ | 760000 mL⁻¹ | 16.5 mg/dm^2 | 48.8 mg |  |
|  |  |  |  |  | O=C(O)CCC(CC(=O)O)(C(=O)O)P(=O)(O)O (stereo not shown) [Comparative Example 10, 2-phosphonobutane-1,2,4-tricarboxylic acid] | 670000 mL⁻¹ | 840000 mL⁻¹ | 420000 mL⁻¹ | 19.2 mg/dm^2 | 55.5 mg |  |
